Laboratory results from patent publication US20260373103A1, “COMPOSITIONS AND METHODS FOR PREVENTING CARDIOMYOPATHY” (OHIO STATE INNOVATION FOUNDATION, priority 2022, published 2026).
Entries after “also recorded” stand apart in the source; their conditions may differ.

Assays:
Type in all cases: cell-based
TOM20 = TOM20 ubiquitination and TOM20 protein level after A/O, western blot
Experimental: (§1) HeLa cells and mouse embryonic fibroblasts (MEFs) were grown in Dulbecco's minimum essential medium (DMEM) with 10% fetal bovine serum (FBS) supplemented with penicillin-streptomycin. HeLa Parkin, PINK1 KO cells, WT and MFN2 KO cells were previously described. Cells stably expressing USP30 were generated using lentiviral vectors of pLVX-Puro-Myc-USP30. The USP30 plasmid was obtained from Addgene. The plasmid was transferred into a lentiviral vector and viral particles were prepared by transiently transfecting HEK293T using standard methods. For the drug treatment experiments, cells were incubated in medium containing a mixture of 5 μM oligomycin and 5 μM antimycin A (A/O; see figures for treatment times). In 18 h treatment, A/O were used in combination with 10 μM quinolyl-valyl-O-methylaspartyl-[−2,6-difluorophenoxy]-methyl ketone (QVD), a broad-spectrum caspase inhibitor. ST51000539 (ST-539) was purchased from Tim Tec, Inc. Other chemicals were from Sigma-Aldrich (St. Louis, MO, USA). For FACS analysis, cells stably expressing mt-Keima were incubated in medium containing a mixture of 1 AM oligomycin and 1 AM antimycin A for 1.5 h. Prior to A/O treatment, cultures were treated with DMSO or ST-539 at 3 μg/ml. Cells were trypsinized, washed once with PBS buffer and then resuspended into 500 μl of PBS prior to analysis using a BD Fortessa flow cytometer as previously described.
Cells were lysed in RIPA buffer (50 mM Tris-HCl, at pH 8.0; 150 mM NaCl; 1% (vol/vol) Nonidet P-40; 0.5% sodium deoxycholate, 0.1% SDS and protease inhibitor cocktail (Roche)) on ice. Primary antibodies were used at the following concentrations: USP30 (Santa Cruz, sc-515235, 1:200); TOM20 (Cell Signaling Technology, 42406S, 1:1000); TOM40 (Proteintech, 18409-1-AP, 1:1000); NDP52 (Cell Signaling Technology, 60732S, 1:1000); TIM23 (Proteintech, 11123-1-AP, 1:500); LC3A/B (Cell Signaling Technology, 4108S, 1:1000); GAPDH (Cell Signaling Technology, 5175S, 1:1000); PINK1 (Cell Signaling Technology, 6946S, 1:1000); ACTIN (Cell Signaling Technology, 3700S, 1:1000). The membranes were incubated with anti-rabbit (LI-COR, 926-32211, 1:15000) or anti-mouse (LI-COR, 926-68072, 1:15000) IgG secondary antibodies for 1 h at room temperature. Images were captured using the Odyssey system (LI-Cor). One representative blot is shown of three independent experiments.
The enzymatic activity of Parkin is to function as an E3 ubiquitin ligase. […] To investigate TOM20 ubiquitination during mitophagy, we treated HeLa cells stably expressing YFP-Parkin (Hela-Parkin) for up to 18 h with both the mitochondrial complex III inhibitor antimycin A and the ATP synthase inhibitor oligomycin (antimycin A/oligomycin/[A/O]; FIG. 1A). […] A/O treatment also results in a decline in the abundance of the OMM protein TOM40 and the inner mitochondrial protein TIM23 (FIG. 1A). […] In this context, increased expression of USP30 blocked the accumulation of ubiquitinated TOM20 and prevented the destruction of this outer mitochondrial protein, as well as TOM40 and TIM23, after A/O treatment (FIG. 1A). We then employed this cellular assay to monitor TOM20 turnover, and analyzed compounds known to be associated with the ubiquitination process for inhibitors of USP30. […] We defined the effects of this chemical using biochemical assays. […] Initially to assess mitophagy in cells, we monitored the degradation of the inner membrane protein, the translocase of the inner membrane 23 (TIM23), by immunoblotting (FIG. 5A). […] USP30's overexpression prevented a reduction in TIM23 and TOM40 levels.
Genetic suppression of USP30 in Parkin-overexpressing cells promotes the clearance of mitochondria in response to mitochondrial depolarizing agents. […]

[1] = system: HeLa-Parkin and HeLa-Parkin cells expressing USP30; test: Cell proliferation; settings: ST-539, 24 hours
[2] = system: HeLa-Parkin cells and HeLa-Parkin cells that express USP30; test: Mitophagy in cells by mt-Keima fluorescence FACS
Experimental: as §1, with “For FACS analysis, cells stably expressing mt-Keima were incubated in medium containing a mixture of 1 AM oligomycin and 1 AM antimycin A for 1.5 h. Prior to A/O treatment, cultures were treated with DMSO or ST-539 at 3 μg/ml. Cells were trypsinized, washed once with PBS buffer and then resuspended into 500 μl of PBS prior to analysis using a BD Fortessa flow cytometer as previously described.” left out
We employed a sensitive fluorescence-activated cell sorting (FACS)-based method for detecting mitophagy using the pH-dependent fluorescent protein Keima. […] We exploited the mt-Keima probe and measured mitophagy in HeLa-Parkin cells and HeLa-Parkin cells that express USP30. […]

mitochondrial function = test: Mitochondrial function overall in cells; settings: regardless of USP30 expression
Experimental: as §1

[3] = system: HeLa-Parkin or HeLa-Parkin/USP30 cells; test: Mitochondrial membrane potential (TMRM signal); settings: ST-539 3 to 10 μg/ml
Experimental: ΔΨm was measured using a fluorescence microplate reader (BioTek Instruments) in cells preincubated with Tetramethylrhodamine methyl ester (TMRM, Thermo Scientific) following manufacturer's instructions. Cells were washed in PBS before resuspension in Hank's balanced salt solution (HBSS; 156 mM NaCl, 3 mM KCl, 2 mM MgSO4, 1.25 mM KH2PO4, 2 mM CaCl2), 10 mM glucose and 10 mM HEPES; pH adjusted to 7.35 with NaOH) (1.0×10^6 cells/ml) containing 50 nM TMRM. For each individual experiment, average TMRM fluorescence was normalized to control cells.
We initially analyzed mitochondrial function using Tetramethylrhodamine (TMRM), a dye requiring mitochondrial membrane potential to accumulate within the mitochondria.

TIM23 = TIM23 protein level/degradation after A/O, immunoblotting; settings: ST-539; HeLa-Parkin/USP30, A/O 18 h
Experimental: (§2) HeLa cells and mouse embryonic fibroblasts (MEFs) were grown in Dulbecco's minimum essential medium (DMEM) with 10% fetal bovine serum (FBS) supplemented with penicillin-streptomycin. HeLa Parkin, PINK1 KO cells, WT and MFN2 KO cells were previously described. Cells stably expressing USP30 were generated using lentiviral vectors of pLVX-Puro-Myc-USP30. The USP30 plasmid was obtained from Addgene. The plasmid was transferred into a lentiviral vector and viral particles were prepared by transiently transfecting HEK293T using standard methods. For the drug treatment experiments, cells were incubated in medium containing a mixture of 5 μM oligomycin and 5 μM antimycin A (A/O; see figures for treatment times). In 18 h treatment, A/O were used in combination with 10 μM quinolyl-valyl-O-methylaspartyl-[−2,6-difluorophenoxy]-methyl ketone (QVD), a broad-spectrum caspase inhibitor. […]
The enzymatic activity of Parkin is to function as an E3 ubiquitin ligase. […] We then employed this cellular assay to monitor TOM20 turnover, and analyzed compounds known to be associated with the ubiquitination process for inhibitors of USP30. […] Initially to assess mitophagy in cells, we monitored the degradation of the inner membrane protein, the translocase of the inner membrane 23 (TIM23), by immunoblotting (FIG. 5A). […]

NDP52 = NDP52 level after A/O, immunoblotting; settings: Parkin positive cells, A/O 18 h, ST-539 3 μg/ml; not in WT HeLa or PINK1 KO cells
Experimental: as §2
Genetic suppression of USP30 in Parkin-overexpressing cells promotes the clearance of mitochondria in response to mitochondrial depolarizing agents. […] To investigate if the PINK 1/Parkin pathway is required for ST-539 induced mitophagy, we analyzed TOM20 ubiquitination in wild-type (WT) HeLa cells, which express little to no endogenous Parkin, as well as in WT and PINK1 knockout (KO) HeLa cells stably expressing YFP-tagged Parkin. […]

[4] = ST-539 10 μg/ml, with A/O, presence of USP30

## CC(C)(C)NS(=O)(=O)c1cccc2c(NC(=O)C(Cc3ccccc3)NC(=O)c3ccccc3)cccc12 (stereo not shown) [ST-539]
TOM20; A/O plus ST-539 1 or 3 μg/ml, cells expressing both ectopic Parkin and endogenous PINK1
  TOM20 ubiquitination and decline in TOM20 level on addition of ST-539: further potentiated
TOM20; A/O treatment
  correlation of TOM20 ubiquitination with ST-539 dosage: A close correlation exists
TOM20; Parkin positive cells, A/O 18 h, ST-539 3 μg/ml, not in WT HeLa or PINK1 KO cells
  reduction in TOM20 level relative to vehicle treated cells: more significant reduction
TOM20; [4]
  TOM20 ubiquitination: caused a ubiquitinated TOM20
  loss of TOM20 protein level: ~ 90%
TOM20; long term treatment (18 h), ST-539 3 μg/ml
  TOM20 ubiquitination independent of functional PINK1/Parkin pathway: did not promote TOM20 ubiquitination
[1]
  cell proliferation: maintained
[2]; ST-539 3 μg/ml, HeLa-Parkin cells expressing USP30
  A/O induced mitophagy (mt-Keima FACS): restored A/O induced mitophagy
[2]; cellular studies, ST-539, no stress
  mitophagy in the absence of mitochondrial stress: minimal change in mitophagy
Mitochondrial function
  effect on mitochondrial function: minimal effect on mitochondrial function; also recorded: marginally alters mitochondrial function
[3]
  TMRM staining (mitochondrial membrane potential): did not block TMRM staining
TIM23
  TIM23 degradation: restored TIM23 and TOM40 degradation
NDP52
  reduction in NDP52 level relative to vehicle treated cells: more significant reduction
